# ChEMBL document CHEMBL1201862, “PubChem BioAssay data set” (2004)
# The source made the active and inactive calls.
# How the values were obtained:
# [1] = Luminescence Cell-Based Dose Retest to Confirm Inhibitors of Cancer Stem Cells. [Related pubchem assays (depositor defined):AID2717, AID2721]; type: functional; conditions: Homo sapiens
# [2] = target: T1, Cytochrome P450 1A2 (Homo sapiens, UniProt P05177);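 further: PubChem cytochrome P450 panel assay, CYP1A2 panel member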
# T1 sequence (P05177 whole entry): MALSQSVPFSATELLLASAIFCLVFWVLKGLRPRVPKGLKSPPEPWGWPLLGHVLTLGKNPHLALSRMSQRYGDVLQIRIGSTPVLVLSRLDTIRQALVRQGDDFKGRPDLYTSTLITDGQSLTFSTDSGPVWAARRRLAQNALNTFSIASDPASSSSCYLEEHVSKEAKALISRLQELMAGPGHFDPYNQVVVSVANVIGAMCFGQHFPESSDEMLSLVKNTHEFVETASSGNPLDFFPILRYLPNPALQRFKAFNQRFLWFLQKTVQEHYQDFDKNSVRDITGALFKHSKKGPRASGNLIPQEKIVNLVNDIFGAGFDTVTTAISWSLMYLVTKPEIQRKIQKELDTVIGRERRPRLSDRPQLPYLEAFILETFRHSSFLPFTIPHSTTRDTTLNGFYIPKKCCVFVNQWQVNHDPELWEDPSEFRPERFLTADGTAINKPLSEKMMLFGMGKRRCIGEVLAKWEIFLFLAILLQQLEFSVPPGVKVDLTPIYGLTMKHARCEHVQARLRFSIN
# [3] = target: Cytochrome P450 3A4 (Homo sapiens, UniProt P08684);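 further: CYP3A4 tested as one member of a cytochrome P450 panel screen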
# [4] = target: Cytochrome P450 2C9 (Homo sapiens, UniProt P11712)
# [5] = target: Cytochrome P450 2C19 (Homo sapiens, UniProt P33261); experiment: Cytochrome panel assay with activity outcomes. Panel member name: p450-cyp2c19 Compounds with AC50 equal or less than 10 uM are considered active; type: functional; conditions: read-out: AC50
# [6] = tested on: H9c2; experiment: cells; type: functional, cell-based; conditions: Rattus norvegicus, H9c2, Myocardium;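 further: confirmatory concentration-response retest of ultra-high-throughput screening hits for modulation of myocardial damage; cell death induced by hydrogen peroxide oxidative stress; compound pretreatment for 60 min then peroxide exposure for 2 h; potency is for protecting the cells against peroxide damage rather than for killing them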
# [7] = target: T2, Rac GTPase-activating protein 1 (Homo sapiens, UniProt Q9H0H5); experiment: MgcRacGAP GTPase-activating activity inhibitors, confirmation, biochemical, ADP Hunter fluorescence, primary and confirmatory (AID 624330); type: functional
# T2 sequence (Q9H0H5 whole entry): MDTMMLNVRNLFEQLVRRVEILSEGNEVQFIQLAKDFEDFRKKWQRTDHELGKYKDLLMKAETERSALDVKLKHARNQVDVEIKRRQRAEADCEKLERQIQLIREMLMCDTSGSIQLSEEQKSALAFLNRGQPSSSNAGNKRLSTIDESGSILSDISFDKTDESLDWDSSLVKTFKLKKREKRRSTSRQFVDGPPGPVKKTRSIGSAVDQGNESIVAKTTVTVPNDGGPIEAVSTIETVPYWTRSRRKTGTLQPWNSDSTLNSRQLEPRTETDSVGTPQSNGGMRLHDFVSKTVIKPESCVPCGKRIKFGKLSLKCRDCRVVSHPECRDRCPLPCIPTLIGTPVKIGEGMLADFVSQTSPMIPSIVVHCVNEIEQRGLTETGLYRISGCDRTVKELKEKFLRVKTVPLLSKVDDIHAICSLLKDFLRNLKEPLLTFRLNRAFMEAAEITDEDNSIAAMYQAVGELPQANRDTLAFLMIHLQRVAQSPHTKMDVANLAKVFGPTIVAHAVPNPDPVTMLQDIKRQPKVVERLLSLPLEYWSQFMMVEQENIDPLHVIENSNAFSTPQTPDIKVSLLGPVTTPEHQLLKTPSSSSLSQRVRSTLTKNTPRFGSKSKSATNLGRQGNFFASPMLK
# [8] = tested on: Streptococcus; experiment: Group A Streptococcus viability loss, dose response, counter-screen for streptokinase expression inhibitor project, luminescence, BacTiterGlo (AID 1915); type: functional, organism-based;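 further: potency for reduction of bacterial viability or growth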
# [9] = tested on: Streptococcus sp. 'group A'; experiment: growth inhibition of control SK(-) GAS strain, dose response, counter-screen for streptokinase expression inhibitor project, luminescence, kanamycin, BacTiterGlo, confirmation (AID 1900); type: functional, organism-based
# Chain of Cytochrome P450 3A4 (P08684 whole entry): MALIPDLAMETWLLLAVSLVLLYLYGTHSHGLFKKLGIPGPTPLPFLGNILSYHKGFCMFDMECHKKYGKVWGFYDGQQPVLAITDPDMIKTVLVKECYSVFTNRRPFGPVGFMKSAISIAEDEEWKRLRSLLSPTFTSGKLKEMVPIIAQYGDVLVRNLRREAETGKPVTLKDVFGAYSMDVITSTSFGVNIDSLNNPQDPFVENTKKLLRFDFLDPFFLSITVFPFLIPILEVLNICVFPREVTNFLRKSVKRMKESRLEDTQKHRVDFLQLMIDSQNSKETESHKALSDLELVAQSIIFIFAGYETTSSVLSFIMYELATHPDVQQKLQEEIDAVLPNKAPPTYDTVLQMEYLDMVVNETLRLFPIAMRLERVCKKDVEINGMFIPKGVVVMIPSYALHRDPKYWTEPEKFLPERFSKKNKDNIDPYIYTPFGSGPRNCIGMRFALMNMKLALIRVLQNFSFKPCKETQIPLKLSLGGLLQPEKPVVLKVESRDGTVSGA
# Chain of Cytochrome P450 2C9 (P11712 whole entry): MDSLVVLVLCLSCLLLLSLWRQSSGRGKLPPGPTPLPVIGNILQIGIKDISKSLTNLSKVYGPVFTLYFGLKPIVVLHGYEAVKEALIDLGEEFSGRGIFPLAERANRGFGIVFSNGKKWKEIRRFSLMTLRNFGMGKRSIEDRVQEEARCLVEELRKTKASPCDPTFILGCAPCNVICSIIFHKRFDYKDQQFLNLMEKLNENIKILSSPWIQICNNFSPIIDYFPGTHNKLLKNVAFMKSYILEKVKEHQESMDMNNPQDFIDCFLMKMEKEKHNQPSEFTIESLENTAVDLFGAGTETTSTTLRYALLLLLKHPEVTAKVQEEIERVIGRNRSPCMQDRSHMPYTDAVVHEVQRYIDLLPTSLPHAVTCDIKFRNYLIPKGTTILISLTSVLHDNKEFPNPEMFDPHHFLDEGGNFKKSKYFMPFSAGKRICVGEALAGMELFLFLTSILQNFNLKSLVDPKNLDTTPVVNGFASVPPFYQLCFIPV
# Chain of Cytochrome P450 2C19 (P33261 whole entry): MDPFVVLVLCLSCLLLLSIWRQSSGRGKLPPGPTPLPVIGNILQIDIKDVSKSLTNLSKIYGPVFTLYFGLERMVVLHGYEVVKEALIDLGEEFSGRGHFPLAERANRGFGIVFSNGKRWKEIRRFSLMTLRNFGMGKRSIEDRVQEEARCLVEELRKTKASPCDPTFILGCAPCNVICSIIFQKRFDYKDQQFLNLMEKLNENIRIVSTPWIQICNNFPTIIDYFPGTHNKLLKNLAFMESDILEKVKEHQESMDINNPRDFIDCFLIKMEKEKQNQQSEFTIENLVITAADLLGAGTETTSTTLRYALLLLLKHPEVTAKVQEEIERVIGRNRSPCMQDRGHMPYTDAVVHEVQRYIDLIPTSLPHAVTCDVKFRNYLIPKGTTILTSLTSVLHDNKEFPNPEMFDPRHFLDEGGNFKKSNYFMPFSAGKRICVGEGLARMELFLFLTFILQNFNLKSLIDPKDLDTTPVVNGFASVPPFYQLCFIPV
smiles,measurement,setting,value
COC(=O)Nc1nc2cc(-c3nnc(O)c4ccccc34)ccc2[nH]1,AC50,[1],11.2 µM (active)
COC(=O)c1nnn(Cc2ccccc2)c1N,AC50,[2],0.126 µM (inconclusive)
COCCn1c(=O)c(-c2ccc(OC)cc2)nc2cnc(Oc3cccc(Cl)c3)nc21,AC50,[2],6.31 µM (inconclusive)
same,AC50,[3],2 µM (inconclusive)
CCNc1ncc2nc(-c3ccc(F)cc3)c(=O)n(Cc3ccc(F)cc3)c2n1,AC50,[2],20 µM (inconclusive)
COc1cc(CNC(C)(C)CO)ccc1OCC(=O)Nc1ccc(Br)cc1,AC50,[4],39.8 µM (inconclusive)
CCCOc1ccc(C2C(=O)N(C3CCCCC3)CC(=O)N2C2CC2)cc1OC (centres undefined),AC50,[3],17.8 µM (inconclusive)
same,AC50,[5],39.8 µM (inconclusive)
COc1cc(/C=N\NC(=O)c2cccnc2)ccc1OC(=O)c1ccccc1Cl,IC50,[6],> 79 µM (inactive)
O=C(/C(=N/Nc1cccc(C(F)(F)F)c1)C(=O)C(F)(F)F)c1cccs1,AC50,[1],1.76 µM (active)
Cc1ccc(N/N=C/c2cccnc2)cc1,AC50,[1],4.39 µM (active)
COc1cc(-c2nnc(-c3cc(-c4ccccc4)nc4ccccc34)o2)cc(OC)c1OC,IC50,[6],10.5 µM (active)
COc1ccc(-n2nc(C(=O)NCC(=O)Nc3cc(OC)c(OC)c(OC)c3)c3ccccc3c2=O)cc1Cl,IC50,[6],> 79 µM (inactive)
COC(=O)[C@@]1(Cc2ccc(F)cc2)[C@H]2c3cc(C(=O)N4CCCC4)n(CCc4ccc(O)c(O)c4)c3C[C@H]2CN1C(=O)c1ccccc1,AC50,[2],20 µM (inconclusive)
CCOC(=O)c1cccc(NC(=O)COc2ccc([N+](=O)[O-])cc2)c1,AC50,[3],15.8 µM (inconclusive)
COc1ccc(NC2CCCN(C(=O)c3ccccc3N3CCOCC3)C2)cc1OC (centres undefined),IC50,[7],198 µM (active)
CCn1c2ccccc2c2cc(NC(=O)CNC)ccc21,IC50,[7],100 µM (active)
O=C(CSc1nc(O)c2ccccc2n1)c1ccccc1,IC50,[6],> 79 µM (inactive)
O=C(NCc1cccnc1)C1COc2ccccc2O1 (centres undefined),AC50,[4],20 µM (inconclusive)
CC(=O)Nc1cccc(/C(C)=N/NC(=O)c2cccs2)c1,IC50,[6],> 79 µM (inactive)
Cc1cccc(/N=C/c2c(O)ccc3oc4c(c23)CCCC4)n1,IC50,[6],> 79 µM (inactive)
COC(=O)c1sccc1NC(=O)CN(C)NS(=O)(=O)c1ccc(F)cc1,AC50,[4],28.2 µM (inconclusive)
O=C(c1c[nH]c(=O)n(-c2ccccc2)c1=O)N1CCc2ccccc21,AC50,[2],0.0794 µM (inconclusive)
same,AC50,[5],6.31 µM (inconclusive)
CCOC(=O)Cc1csc(SCc2cc(=O)oc3cc(O)ccc23)n1,IC50,[6],> 79 µM (inactive)
COc1ccc(-c2csc(NC(=O)CCCc3nc(O)c4ccccc4n3)n2)cc1OC,IC50,[6],> 79 µM (inactive)
NCCSC(c1ccccc1)c1ccccc1,AC50,[2],1.58 µM (inconclusive)
same,AC50,[3],3.16 µM (inconclusive)
NCC#Cc1ccccc1,AC50,[3],15.8 µM (inconclusive)
CCCC(=O)Nc1cccc(Oc2nc(C)cc(C)c2C#N)c1,AC50,[4],10 µM (inconclusive)
COc1ccc(CNc2ncnc3ccc(-c4ccccc4C#N)cc23)c(OC)c1,AC50,[4],0.794 µM (inconclusive)
COC(=O)C(C)N=C(S)N1CCN(c2c(F)cc3c(=O)c(C(=O)O)cn(C4CC4)c3c2OC)CC1C (centres undefined),EC50,[8],4.39 µM (active)
same,EC50,[9],2.85 µM (active)
Cn1cc(-c2nc3cncnc3n(CCN)c2=O)c2ccccc21,AC50,[4],15.8 µM (inconclusive)
same,AC50,[5],31.6 µM (inconclusive)
COc1ccc(OC)c(-c2nnc3n2N=C(c2ccc(OC(F)F)c(OCC4CC4)c2)CS3)c1,AC50,[1],7.23 µM (active)
Brc1cccc(OCCN2CCOCC2)c1,IC50,[7],134 µM (active)
O=C(Cn1ccc([N+](=O)[O-])n1)NCc1cccs1,AC50,[2],15.8 µM (inconclusive)
same,AC50,[3],39.8 µM (inconclusive)
same,AC50,[5],14.1 µM (inconclusive)
COc1ccc(N/N=C(/C(C)=O)N2CCCc3ccccc32)cc1,AC50,[1],1.58 µM (active)
CCOC(=O)CSc1nc(O)c2c(C)c(C)sc2n1,IC50,[6],10.2 µM (active)
COc1ccc(CNn2c(-c3cccs3)nc3ccccc3c2=O)cc1OC,IC50,[6],8.92 µM (active)
COc1ccc(-c2cc(-c3nnc(COC(=O)C4CC4C)o3)c3ccccc3n2)cc1OC (centres undefined),IC50,[6],8.29 µM (active)
COc1ccccc1NC(=O)c1ccc(NC(=O)Cc2nnc(O)c3ccccc23)cc1,IC50,[6],> 79 µM (inactive)
CC(=O)O/C(=C1/C[C@H]2[C@@H]3CC=C4C[C@@H](OC(C)=O)CC[C@]4(C)[C@@H]3CC[C@]2(C)C1=O)C(F)(F)F,AC50,[2],5.01 µM (inconclusive)
same,AC50,[4],3.16 µM (inconclusive)
CC(=O)NCCNc1cc(-c2ccccc2C(F)(F)F)ncn1,AC50,[2],25.1 µM (inconclusive)
NS(=O)(=O)c1ccc(NC(=O)Nc2cccc3ccccc23)cc1,AC50,[2],1 µM (inconclusive)
CS(=O)(=O)Nc1ccc([N+](=O)[O-])cc1Oc1ccccc1 [NIMESULIDE],AC50,[2],12.6 µM (inconclusive)
COc1ccccc1NC(=O)CSc1nc2ccccc2cc1Cc1ccccc1,AC50,[2],3.55 µM (inconclusive)
same,AC50,[4],0.0631 µM (inconclusive)
CN(CC(=O)Nc1ccccc1Cl)C(=O)CCc1nc(O)c2ccccc2n1,IC50,[6],23.8 µM (active)
O=c1oc2c(CN3CCOCC3)c(O)ccc2c2ccccc12,AC50,[4],20 µM (inconclusive)
N=c1sccn1CC(=O)Nc1cccc(Oc2ccccc2)c1,AC50,[2],6.31 µM (inconclusive)
same,AC50,[4],20 µM (inconclusive)
O=C(CNC(=O)c1cccs1)N/N=C/c1ccc(O)cc1O,IC50,[7],63.7 µM (active)
C=CC(C)(C)c1[nH]c2ccccc2c1C1=C(O)C(O)=C(c2c[nH]c3c(CC=C(C)C)cccc23)C(=O)C1=O,AC50,[3],25.1 µM (inconclusive)
CN(C)CCC=C1c2ccccc2CCc2ccccc21 [AMITRIPTYLINE],AC50,[2],15.8 µM (inconclusive)
CCn1c(=O)c2c(=O)cc(O)oc2c2ccccc21,AC50,[3],0.631 µM (inconclusive)
same,AC50,[5],3.55 µM (inconclusive)
Cc1ccc(COn2c(-c3ccc(Cl)cc3)nc3ccc([N+](=O)[O-])cc32)cc1,AC50,[3],3.55 µM (inconclusive)
same,AC50,[4],8.91 µM (inconclusive)
CS(=O)(=O)Nc1ccc(C(=O)N2CCN(c3ccccc3)CC2)cc1,AC50,[3],25.1 µM (inconclusive)
same,AC50,[4],7.94 µM (inconclusive)
same,AC50,[5],39.8 µM (inconclusive)
O=C(CNC(=O)c1cccc(F)c1)N/N=C/c1cc(Br)ccc1OC(=O)/C=C/c1ccco1,IC50,[6],> 79 µM (inactive)
COc1cc(/C=N/NC(=O)C2(O)c3ccccc3-c3ccccc32)ccc1O,IC50,[7],47.6 µM (active)
O=C(Nc1ccccc1C(=O)O)c1ccc2ccccc2n1,AC50,[2],5.01 µM (inconclusive)
O=c1cnc2cnc(Nc3ccccc3)nc2n1C[C@H]1CCCO1,AC50,[3],31.6 µM (inconclusive)
COC(=O)c1ccc(C#CC(NP(=O)(c2ccccc2)c2ccccc2)c2ccccc2)cc1 (centres undefined),AC50,[2],20 µM (inconclusive)
same,AC50,[5],20 µM (inconclusive)
CC(=O)c1ccccc1OCCCN1CCCCC1,IC50,[6],> 79 µM (inactive)
CC(=O)c1ccc(NC(S)=Nc2ccc(Br)c(Cl)c2)cc1,EC50,[8],8.74 µM (active)
same,EC50,[9],7.95 µM (active)
CC1=C2[C@@H]3OC(=O)[C@@H](C)[C@@H]3CC[C@]2(C)C=CC1=O,AC50,[2],10 µM (inconclusive)
O=C(C[N+]12CN3CN(CN(C3)C1)C2)c1ccc(-c2ccccc2)cc1,AC50,[3],3.16 µM (inconclusive)
same,AC50,[4],3.16 µM (inconclusive)
COc1cc(OC)cc(-c2sc3ccc(OC)cc3c2-c2ccc3cc[nH]c3c2)c1,AC50,[1],1.87 µM (active)
